Like-named read-outs stand apart in the source and are kept apart here. Blank lines part the entries; values can stand above or below the compound they belong to.
Key:
[1] = biological target: HPK1-FL (HPK full length, T165E S171E) (Homo sapiens (Human), UniProt Q92918, S171E/T165E); assay: HPK1-FL HTRF Enzymatic Assay ("HTRF"); type: biochemical; conditions: ATP 1 mM, Table B1-2, read-out: HPK1 Ki, H = HTRF
Experimental: HPK1-FL HTRF Enzymatic Assay (“HTRF”)
HPK-FL enzyme phosphorylates Biotin-SLP-76 substrate in the presence of ATP at 1 mM and varying concentrations of test compound. Product is detected by FRET using Eu-anti-pSLP76 Ab and SA-XL665. See www.cisbio.com/HTRF for additional HTRF technology information.
Instrumentation: • Echo555 compound dispenser • Agilent Bravo • Perkin Elmer Envision
Materials: • Assay plate: White ProxiPlate 384 F (PerkinElmer cat #6008289) • Kinase: HPK full length double mutant • Substrate: Biotin-SLP76 • ATP: 100 mM ATP • BSG: 2% BSG • DMSO: DMSO (Sigma cat #34869-100ML) • Reaction Buffer: H2O/50 mM HEPES, pH 7.5/10 mM MgCl2/2 mM TCEP/0.01% Brij-35/0.01% BSG • Detection mix: Eu-anti-pSLP76/SA-XL665 (Cisbio, #610SAXAC)
Assay Procedure Ki Determination:
To a 384 well Proxiplate with 80 nL compound or DMSO spotted on was added 4 μl/well kinase mix. The mixture was preincubated for 30 minutes and then 4 μl/well substrate mix was added. The solution was incubated for 60 min and then 4 μl/well detection mix was added. The solution was incubated for another 60 min. The plates were then loaded onto a Perkin Elmer Envision and the TR-FRET signal was measured at 615 and 665 nm. A ratio of […] was used to calculate the % activity at each concentration of compound.

HPK1 [2] = biological target: HPK1 (Homo sapiens, UniProt Q92918); assay: HPK1 Lantha Binding Assay ("Lanth")
Method in brief: (§1)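 TR-FRET tracer displacement with 2 nM GST-tagged kinase, 2 nM Eu-anti-GST antibody and 15 nM Tracer222 at 23 C. Enzyme–antibody preincubated 1 h with compound, then tracer added for 1 h; 340 nm excitation, 615/665 nm emission. Ki from Morrison fit over an 11-point 5-fold dilution.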

[3] = system: primary human pan T cells; assay: Human T-Cell IL2 Induction Assay; type: cell-based; conditions: assayed concentration 2.8 μM; anti-CD3/anti-CD28 stimulated primary human pan T cells
Experimental: Human T-Cell IL2 Induction Assay
Anti-CD3 and anti-CD28 activates TCR signaling in primary human pan T cells leading to IL-2 promoter induction. Secreted IL-2 in cell culture supernatant is detected by electrochemiluminescence using a capture antibody against IL-2 and an anti-IL-2 antibody labeled with SULFO-tag.
See www.mesoscale.com for additional electrochemiluminescence technology information.
Incubate primary human pan T cells with varying concentrations of test compounds for 30 minutes in a humidified incubator at 37° C. and 5% CO2. Transfer cells to a plate pre-coated with a fixed concentration of anti-human CD3 (determined separately for each donor lot) and add soluble anti-human CD28 (final concentration=1 μg/ml). Stimulate cells in a humidified incubator at 37° C. and 5% CO2 for 4 hours. Transfer 25 μl of supernatant to a MSD single spot plate pre-coated with an anti-human IL-2 antibody. Incubate MSD plate overnight at 4° C. with gentle shaking. Wash MSD plate 4× with wash buffer. Add SULFO-tagged detection antibody at a 1:50 dilution and incubate at room temperature shaking for 2 hours. Wash MSD plate 4× with wash buffer and add 150 μl 2×MSD read buffer. Read on an MSD instrument. Normalize data to stimulated/untreated controls to calculate % activity at each concentration of compound.
Materials: • Frozen Primary Human Pan-T Cells (StemCell Technologies #70024) • anti-human CD3 (OKT3 clone) (eBioscience #16-0037-81) • anti-human CD28 (CD28.2 clone) (BD #555725) • 96-well Human IL-2 tissue culture kit (MSD #K151AHB-4)
Instrumentation: • Biomek FX for liquid handling (Beckman Coulter) • MSD SECTOR S 600 (Meso Scale Discovery)
Exemplary compounds of Formula I or Ia were tested in the human T-cell IL-2 induction assays. The % increase measured for IL-2 in cells treated by the test compounds relative to untreated cells are provided in Table B2 for certain compounds (structures as shown with the HPK1 Ki values).

HPK1 [4] = assay: HPK1 Lantha Binding Assay ("Lanth"); conditions: Table B1-1, read-out: HPK1 Ki (μM) (Lanth)
Method in brief: as §1

[5] = Table B1-2, read-out: HPK1 Ki, L = Lanth
[6] = Table B1-1, read-out: HPK1 Ki (μM) (Lanth)

Sequence of HPK1 (Homo sapiens, UniProt Q92918) (Q92918 whole entry, looked up): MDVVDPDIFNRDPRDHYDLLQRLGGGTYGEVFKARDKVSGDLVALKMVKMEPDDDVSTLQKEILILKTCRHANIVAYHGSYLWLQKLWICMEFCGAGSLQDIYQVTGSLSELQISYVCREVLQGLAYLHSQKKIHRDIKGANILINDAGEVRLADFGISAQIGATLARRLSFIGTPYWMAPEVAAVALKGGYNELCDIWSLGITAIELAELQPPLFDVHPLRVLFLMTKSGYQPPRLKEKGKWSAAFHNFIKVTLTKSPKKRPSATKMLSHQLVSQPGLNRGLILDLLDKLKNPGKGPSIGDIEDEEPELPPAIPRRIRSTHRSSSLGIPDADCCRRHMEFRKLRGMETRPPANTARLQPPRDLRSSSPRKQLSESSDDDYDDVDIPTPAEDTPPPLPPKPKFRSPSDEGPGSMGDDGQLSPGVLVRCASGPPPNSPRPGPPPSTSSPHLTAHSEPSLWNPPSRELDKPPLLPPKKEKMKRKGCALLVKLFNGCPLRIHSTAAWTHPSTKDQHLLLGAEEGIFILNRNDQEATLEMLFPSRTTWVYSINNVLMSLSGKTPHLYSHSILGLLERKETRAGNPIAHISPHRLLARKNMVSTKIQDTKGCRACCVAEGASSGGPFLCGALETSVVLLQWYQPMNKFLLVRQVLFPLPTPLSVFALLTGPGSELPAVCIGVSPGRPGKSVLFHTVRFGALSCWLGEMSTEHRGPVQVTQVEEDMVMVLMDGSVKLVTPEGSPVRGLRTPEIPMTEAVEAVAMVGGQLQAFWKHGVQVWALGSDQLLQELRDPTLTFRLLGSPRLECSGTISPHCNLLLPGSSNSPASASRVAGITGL
Sequence of HPK1-FL (HPK full length, T165E S171E) (Q92918 whole entry T165E/S171E): as the sequence (Q92918 whole entry, looked up) above, with T165E, S171E counted along it

Ki [1]: 511 nM
SMILES: CC(Oc1ccccn1)c1cc2cc(Nc3cc4n(n3)CC(=O)N(C(C)C)CC4)ncc2c(N)n1 (racemic) [Compound 419, (+/−)-2-((8-amino-6-(1-(pyridin-2-yloxy)ethyl)-2,7-naphthyridin-3-yl)amino)-6-isopropyl-5,6-dihydro-4H-pyrazolo[1,5-d][1,4]diazepin-7(8H)-one]

Ki [1]: 1640 nM
SMILES: CC(C)N1CCc2cc(Nc3cc4cc(C(C)n5ccccc5=O)nc(N)c4cn3)nn2CC1=O (racemic) [Compound 420, (+/−)-2-((8-amino-6-(1-(2-oxopyridin-1(2H)-yl)ethyl)-2,7-naphthyridin-3-yl)amino)-6-isopropyl-5,6-dihydro-4H-pyrazolo[1,5-d][1,4]diazepin-7(8H)-one]

Ki (HPK1 [2]; [5]): 0.00078 µM
SMILES: Cc1ccnc(Cc2ccccc2)c1-c1cc2cc(NC(=O)[C@H]3C[C@@H]3c3cnn(C)c3)ncc2c(N)n1 (racemic) [Compound 427, (+/−)-trans-N-(8-amino-6-(2-benzyl-4-methylpyridin-3-yl)-2,7-naphthyridin-3-yl)-2-(1-methyl-1H-pyrazol-4-yl)cyclopropane-1-carboxamide]

Ki (HPK1 [2]; [6]): 0.000654 µM
SMILES: Cc1ccncc1-c1cc2cc(NC(=O)[C@@H]3C[C@H]3F)ncc2c(N)n1 (single isomer, unassigned) [Compound 107, (trans)-N-(8-amino-6-(4-methylpyridin-3-yl)-2,7-naphthyridin-3-yl)-2-fluorocyclopropane-1-carboxamide]

Ki (HPK1 [2]; [6]): 0.00562 µM
SMILES: Cn1cc([C@H]2C[C@@H]2C(=O)Nc2cc3c(Cl)c(-c4cnccc4CCO)nc(N)c3cn2)cn1 (single isomer, unassigned) [Compound 332]

Ki [1]: 6.2 nM
SMILES: Cc1cc(-c2ncco2)cc(F)c1-c1cc2cc(NC(=O)[C@H]3[C@H](C)[C@@H]3c3cnn(C)c3)ncc2c(N)n1 (single isomer, unassigned) [Compound 349, N-(8-amino-6-(2-fluoro-6-methyl-4-(oxazol-2-yl)phenyl)-2,7-naphthyridin-3-yl)-2-methyl-3-(1-methyl-1H-pyrazol-4-yl)cyclopropane-1-carboxamide]

Ki [1]: 39.7 nM
SMILES: Cc1cc(-c2ncco2)cc(F)c1-c1cc2cc(NC(=O)[C@H]3[C@@H](C)[C@@H]3c3cnn(C)c3)ncc2c(N)n1 (single isomer, unassigned) [Compound 350]

Ki [1]: 0.33 nM
SMILES: Cc1cc(C(N)=O)cc(F)c1-c1cc2cc(NC(=O)[C@H]3C[C@@H]3c3cnn(C)c3)ncc2c(N)n1 (single isomer, unassigned) [Compound 351]

Ki [1]: 5 nM
SMILES: Cc1cc(C(N)=O)cc(F)c1-c1cc2cc(NC(=O)[C@@H]3C[C@H]3c3cnn(C)c3)ncc2c(N)n1 (single isomer, unassigned) [Compound 352]

Ki (HPK1 [2]; [5]): 0.029 µM
SMILES: Cc1ccc2c(c1-c1cc3cc(NC(=O)[C@H]4C[C@@H]4CC#N)ncc3c(N)n1)CC[C@@]2(C)O (single isomer, unassigned) [Compound 353]

Ki (HPK1 [2]; [5]): 0.00022 µM
SMILES: Cc1cccc(Cl)c1-c1cc2cc(NC(=O)[C@H]3C[C@@H]3CC#N)ncc2c(N)n1 (single isomer, unassigned) [Compound 362]

SMILES: Cc1cc(-c2ncco2)ccc1-c1cc2cc(NC(=O)[C@H]3C[C@@H]3c3cnn(C)c3)ncc2c(N)n1 (single isomer, unassigned) [Compound 379]
% IL-2 increase relative to untreated cells [3]: 547%

Ki (HPK1 [2]; [5]): 0.0081 µM
SMILES: Cc1cccc(CC#N)c1-c1cc2cc(NC(=O)[C@@H]3C[C@H]3c3cnn(C)c3)ncc2c(N)n1 (single isomer, unassigned) [Compound 381]

Ki (HPK1 [2]; [5]): 0.00025 µM
SMILES: Cc1ccnc(Cc2ccccc2)c1-c1cc2cc(NC(=O)[C@@H]3C[C@H]3c3cnn(C)c3)ncc2c(N)n1 (single isomer, unassigned) [Compound 397]

Ki (HPK1 [2]; [5]): 0.03 µM
SMILES: Cc1cc(-n2cccn2)ncc1-c1cc2cc(NC(=O)[C@H]3C[C@@H]3c3cnn(C)c3)ncc2c(N)n1 (single isomer, unassigned) [Compound 398]

Ki (HPK1 [2]; [5]): 0.0012 µM
SMILES: Cc1cc(N2CCC2=O)ncc1-c1cc2cc(NC(=O)[C@H]3C[C@@H]3c3cnn(C)c3)ncc2c(N)n1 (single isomer, unassigned) [Compound 400]

Ki (HPK1 [2]; [5]): 0.00026 µM
SMILES: COC(=O)c1cc(C)c(-c2cc3cc(NC(=O)[C@H]4C[C@@H]4c4cnn(C)c4)ncc3c(N)n2)cn1 (single isomer, unassigned) [Compound 402]

Ki (HPK1 [2]; [5]): 0.0019 µM
SMILES: Cc1cc(-c2ccn(C)n2)ncc1-c1cc2cc(NC(=O)[C@H]3C[C@@H]3c3cnn(C)c3)ncc2c(N)n1 (single isomer, unassigned) [Compound 404]

Ki (HPK1 [2]; [6]): 5.8 µM
Ki (HPK1 [4]): 0.0405 µM
SMILES: Nc1nc(-c2ccc[nH]c2=O)cc2cc(NC(=O)C3CC3)ncc12 [Compound 42, N-(8-amino-6-(2-oxo-1,2-dihydropyridin-3-yl)-2,7-naphthyridin-3-yl) cyclopropanecarboxamide]

Ki (HPK1 [2]; [6]): 0.00847 µM
SMILES: Cc1ccncc1-c1cc2cc(NC(=O)NC(C)CO)ncc2c(N)n1 (stereo not drawn) [Compound 117, l-(8-amino-6-(4-methylpyridin-3-yl)-2,7-naphthyridin-3-yl)-3-(1-hydroxypropan-2-yl)urea]

Ki (HPK1 [2]; [6]): 0.00077 µM
SMILES: Cc1ccncc1-c1cc2cc(NC(=O)C3CC34CN(c3ncccc3C#N)C4)ncc2c(N)n1 (stereo not shown) [Compound 150, N-(8-amino-6-(4-methylpyridin-3-yl)-2,7-naphthyridin-3-yl)-5-(3-cyanopyridin-2-yl)-5-azaspiro[2.3]hexane-1-carboxamide]

Ki (HPK1 [2]; [6]): 0.0025 µM
SMILES: CNC(=O)Cn1cc(Nc2cc3cc(-c4cnccc4C)nc(N)c3cn2)cn1 [Compound 184, 2-[4-[[8-amino-6-(4-methyl-3-pyridyl)-2,7-naphthyridin-3-yl]amino]pyrazol-1-yl]-N-methyl-acetamide]

Ki (HPK1 [2]; [6]): 0.000295 µM
SMILES: Cc1ccncc1-c1cc2cc(NC(=O)[C@H]3[C@@H]4CCC(C#N)[C@@H]43)ncc2c(N)n1 (stereo partly drawn) [Compound 230, (1R,5R,6S)—N-(8-amino-6-(4-methylpyridin-3-yl)-2,7-naphthyridin-3-yl)-2-cyanobicyclo[3.1.0]hexane-6-carboxamide]

Ki (HPK1 [2]; [6]): 0.000439 µM
SMILES: Cc1ccncc1-c1cc2cc(Nc3cc(C)n(CCO)n3)ncc2c(N)n1 [Compound 262, 2-(3-[[8-amino-6-(4-methylpyridin-3-yl)-2,7-naphthyridin-3-yl]amino]-5-methyl-1H-pyrazol-1-yl)ethan-1-ol]

Ki (HPK1 [2]; [5]): 0.015 µM
SMILES: Cc1ccncc1-c1cc2cc(NC(=O)C3CC34CC4)ncc2c(N)n1 (stereo not shown) [Compound 413, N-(8-amino-6-(4-methylpyridin-3-yl)-2,7-naphthyridin-3-yl)spiro[2.2]pentane-1-carboxamide]

Ki [1]: 0.013 nM
SMILES: Cc1c(N)cncc1-c1cc2cc(Nc3cc4n(n3)CC(=O)N(C)CC43CC3)ncc2c(N)n1 [Compound 414, 2′-((8-amino-6-(5-amino-4-methylpyridin-3-yl)-2,7-naphthyridin-3-yl)amino)-6′-methyl-5′,6′-dihydrospiro[cyclopropane-1,4′-pyrazolo[1,5-d][1,4]diazepin]-7′(8′H)-one]

Ki [1]: 0.21 nM
SMILES: Cc1c(N)cncc1-c1cc2cc(Nc3cc4n(n3)CC(=O)N(C)CC4)ncc2c(N)n1 [Compound 415, 2-((8-amino-6-(5-amino-4-methylpyridin-3-yl)-2,7-naphthyridin-3-yl)amino)-6-methyl-5,6-dihydro-4H-pyrazolo[1,5-d][1,4]diazepin-7(8H)-one]

— patent US11034692B1 (Genentech, Inc., priority 2017, dated 2021)
